Reference: US20220073536A1 (Rigel Pharmaceuticals, Inc., priority 2003, published 2022)
pIC50: −log10 of the molar value. Like-named read-outs stand apart in the source and are kept apart here.

Tested on: cultured human mast cells (CHMC)
Experiment: CHMC low cell density IgE activation: tryptase assay
Assay type: cell-based
Settings: low cell density, IgE activation
Outline: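 Tryptase release, fluorogenic substrate, 30 min RT. Prior anti-IgE stimulation of CHMC, 30 min, 37 °C, after 1 hr preincubation at 1000–1500 cells/well in MT; unstimulated wells received MT.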

[1] = Homo sapiens, Mast cell, 8 pt, read-out: LD Tryptase, CHMC, IgE, 8 pt
[2] = 8 pt, read-out: LD Tryptase, CHMC, IgE, 8 pt
[3] = Homo sapiens, Mast cell, 3 pt, read-out: LD Tryptase, CHMC, IgE, 3 pt
[4] = 3 pt, read-out: LD Tryptase, CHMC, IgE, 3 pt

| SMILES | pIC50 [1] | pIC50 [2] | pIC50 [3] | other results |
| --- | --- | --- | --- | --- |
| COc1ccc(Nc2nc(Nc3ccc4c(c3)nc(C(F)(F)F)n4C)ncc2F)cc1Cl [Compound 912] | > 5.00 |  |  |  |
| Cn1c(C(F)(F)F)nc2cc(Nc3ncc(F)c(Nc4ccc5c(c4)NC(=O)C(C)(C)O5)n3)ccc21 [Compound 913] |  | > 5.00 |  |  |
| C[C@@H]1Oc2ccc(Nc3nc(Nc4ccc5c(c4)nc(C(F)(F)F)n5C)ncc3F)cc2NC1=O [Compound 914] | > 5.00 |  |  |  |
| OCCn1c(C(F)(F)F)nc2cc(Nc3ncc(F)c(Nc4ccc(Cl)c(Cl)c4)n3)ccc21 [Compound 916] |  | > 5.00 |  |  |
| COc1ccc(Nc2nc(N)nc(-c3ccc4c(c3)nc(C(F)(F)F)n4CCO)c2F)cc1Cl [Compound 917] | > 5.00 |  |  |  |
| CC1(C)Oc2ccc(Nc3nc(N)nc(-c4ccc5c(c4)nc(C(F)(F)F)n5CCO)c3F)cc2NC1=O [Compound 918] | > 5.00 |  | > 5.00 |  |
| C[C@@H]1Oc2ccc(Nc3nc(N)nc(-c4ccc5c(c4)nc(C(F)(F)F)n5CCO)c3F)cc2NC1=O [Compound 919] | > 5.00 |  | > 5.00 |  |
| COc1ccc(Nc2nc(Nc3ccc4oncc4c3)ncc2F)cc1Cl [Compound 925] |  |  | > 5.00 |  |
| CC1(C)Oc2ccc(Nc3nc(Nc4ccc5oncc5c4)ncc3F)cc2NC1=O [Compound 926] | > 5.00 |  |  |  |
| C[C@@H]1Oc2ccc(Nc3nc(Nc4ccc5oncc5c4)ncc3F)cc2NC1=O [Compound 927] | > 5.00 |  |  |  |
| CC1(C)Oc2ccc(Nc3nc(Nc4ccc5oncc5c4)ncc3F)nc2NC1=O [Compound 928, N2-(1,2-Benzisoxazol-5-yl)-N4-(2,2-dimethyl-3-oxo-4H-5-pyrido[1,4]oxazin-6-yl)-5-fluoro-2,4-pyrimidinediamine] |  | > 5.00 |  |  |
| CC1(C)C(=O)Nc2cc(Nc3nc(Nc4ccc5oncc5c4)ncc3F)ccc2S1(=O)=O [Compound 930] |  |  | > 5.00 |  |
| CCn1c(C)nc2cc(Nc3ncc(F)c(Nc4ccc(Cl)c(Cl)c4)n3)ccc21 [Compound 932] |  |  | < 5.00 |  |
| CCn1c(C)nc2cc(Nc3ncc(F)c(Nc4ccc(OC)c(Cl)c4)n3)ccc21 [Compound 933] |  |  | > 5.00 |  |
| CCn1c(C)nc2cc(Nc3ncc(F)c(Nc4ccc5c(c4)NC(=O)C(C)(C)O5)n3)ccc21 [Compound 934] |  |  | > 5.00 |  |
| CCn1c(C)nc2cc(Nc3ncc(F)c(Nc4ccc5c(c4)NC(=O)[C@H](C)O5)n3)ccc21 [Compound 935] | > 5.00 |  | > 5.00 |  |
| CCn1c(C)nc2cc(Nc3ncc(F)c(Nc4ccc5c(n4)NC(=O)C(C)(C)O5)n3)ccc21 [Compound 936, N4-(2,2-Dimethyl-3-oxo-4H-5-pyrido[1,4]oxazin-6-yl)-N2-(1-ethyl-2-methylbenzimidazol-5-yl)-5-fluoro-2,4-pyrimidinediamine] |  |  |  | pIC50 [4]: > 5.00 |
| OCCCn1c(C(F)(F)F)nc2cc(Nc3ncc(F)c(Nc4ccc(Cl)c(Cl)c4)n3)ccc21 [Compound 937] | > 5.00 |  | > 5.00 |  |
| COc1ccc(Nc2nc(Nc3ccc4c(c3)nc(C(F)(F)F)n4CCCO)ncc2F)cc1Cl [Compound 938] |  |  | > 5.00 |  |
| CC1(C)Oc2ccc(Nc3nc(Nc4ccc5c(c4)nc(C(F)(F)F)n5CCCO)ncc3F)cc2NC1=O [Compound 939] | > 5.00 |  | > 5.00 |  |
| C[C@@H]1Oc2ccc(Nc3nc(Nc4ccc5c(c4)nc(C(F)(F)F)n5CCCO)ncc3F)cc2NC1=O [Compound 940] | > 5.00 |  | > 5.00 |  |
| CC1(C)Oc2ccc(Nc3nc(Nc4ccc5c(c4)nc(C(F)(F)F)n5CCCO)ncc3F)nc2NC1=O [Compound 941, N4-(2,2-Dimethyl-3-oxo-4H-5-pyrido[1,4]oxazin-6-yl)-5-fluoro-N2-[1-(3-hydroxypropyl)-2-trifluoromethylbenzimidazol-5-yl]-2,4-pyrimidinediamine] |  | > 5.00 |  | pIC50 [4]: > 5.00 |

| SMILES | pIC50 [1] | pIC50 [2] | pIC50 [3] | other results |
| --- | --- | --- | --- | --- |
| C[C@@H]1Oc2ccc(Nc3nc(Nc4ccc5c(c4)nc(N4CCOCC4)n5C)ncc3F)cc2NC1=O [Compound 945, (S)-5-Fluoro-N2-[1-methyl-2-(4-morpholino)benzimidazol-5-yl]-N4-(2-methyl-3-oxo-2H,4H-benz[1,4]oxazin-6-yl)-2,4-pyrimidinediamine] |  | > 5.00 |  | pIC50 [4]: > 5.00 |
| Cn1c(N2CCOCC2)nc2cc(Nc3ncc(F)c(Nc4ccc5c(n4)NC(=O)C(C)(C)O5)n3)ccc21 [Compound 946, N4-(2,2-Dimethyl-3-oxo-4H-5-pyrido[1,4]oxazin-6-yl)-5-fluoro-N2-[1-methyl-2-(4-morpholino)benzimidazol-5-yl]-2,4-pyrimidinediamine] |  | > 5.00 |  | pIC50 [4]: > 5.00 |
| Cc1nc2cc(Nc3ncc(F)c(Nc4ccc(Cl)c(Cl)c4)n3)ccc2n1CCCO [Compound 947] | > 5.00 |  |  |  |
| COc1ccc(Nc2nc(Nc3ccc4c(c3)nc(C)n4CCCO)ncc2F)cc1Cl [Compound 948] | > 5.00 |  |  |  |
| Cc1nc2cc(Nc3ncc(F)c(Nc4ccc5c(c4)NC(=O)C(C)(C)O5)n3)ccc2n1CCCO [Compound 949] | > 5.00 |  |  |  |
| Cc1nc2cc(Nc3ncc(F)c(Nc4ccc5c(c4)NC(=O)[C@H](C)O5)n3)ccc2n1CCCO [Compound 950] | > 5.00 |  |  |  |
| Cc1nc2cc(Nc3ncc(F)c(Nc4ccc5c(n4)NC(=O)C(C)(C)O5)n3)ccc2n1CCCO [Compound 951, N4-(2,2-Dimethyl-3-oxo-4H-5-pyrido[1,4]oxazin-6-yl)-5-fluoro-N2-[1-(3-hydroxypropyl)-2-methylbenzimidazol-5-yl]-2,4-pyrimidinediamine] |  | > 5.00 |  | pIC50 [4]: > 5.00 |
| CC(=O)NCCCn1c(C)nc2cc(Nc3ncc(F)c(Nc4ccc5c(c4)NC(=O)C(C)(C)O5)n3)ccc21 [Compound 952] | > 5.00 |  | > 5.00 |  |
| CC(=O)NCCCn1c(C)nc2cc(Nc3ncc(F)c(Nc4ccc5c(n4)NC(=O)C(C)(C)O5)n3)ccc21 [Compound 953, N2-[1-[3-(N-Acetylamino)propyl]-2-methylbenzimidazol-5-yl]-N4-(2,2-Dimethyl-3-oxo-4H-5-pyrido[1,4]oxazin-6-yl)-5-fluoro-2,4-pyrimidinediamine] |  | > 5.00 |  | pIC50 [4]: > 5.00 |
| Cn1c(CN2CCOCC2)nc2cc(Nc3ncc(F)c(Nc4ccc(Cl)c(Cl)c4)n3)ccc21 [Compound 954, N4-(3,4-Dichlorophenyl)-5-fluoro-N2-[1-methyl-2-(4-morpholinomethyl)benzimidazol-5-yl]-2,4-pyrimidinediamine] |  | > 5.00 |  | pIC50 [4]: > 5.00 |
| COc1ccc(Nc2nc(Nc3ccc4c(c3)nc(CN3CCOCC3)n4C)ncc2F)cc1Cl [Compound 955, N4-(3-Chloro-4-methoxyphenyl)-5-fluoro-N2-[1-methyl-2-(4-morpholinomethyl)benzimidazol-5-yl]-2,4-pyrimidinediamine] |  | > 5.00 |  |  |
| Cn1c(CN2CCOCC2)nc2cc(Nc3ncc(F)c(Nc4ccc5c(c4)NC(=O)C(C)(C)O5)n3)ccc21 [Compound 956, N4-(2,2-Dimethyl-3-oxo-4H-benz[1,4]oxazin-6-yl)-5-fluoro-N2-[1-methyl-2-(4-morpholinomethyl)benzimidazol-5-yl]-2,4-pyrimidinediamine] |  | > 5.00 |  |  |
| C[C@@H]1Oc2ccc(Nc3nc(Nc4ccc5c(c4)nc(CN4CCOCC4)n5C)ncc3F)cc2NC1=O [Compound 957, (S)-5-Fluoro-N2-[1-methyl-2-(4-morpholinomethyl)benzimidazol-5-yl]-N4-(2-methyl-3-oxo-2H,4H-benz[1,4]oxazin-6-yl)- -2,4-pyrimidinediamine] |  | > 5.00 |  | pIC50 [4]: > 5.00 |
| Cn1c(CN2CCOCC2)nc2cc(Nc3ncc(F)c(Nc4ccc5c(n4)NC(=O)C(C)(C)O5)n3)ccc21 [Compound 958, N4-(2,2-Dimethyl-3-oxo-4H-5-pyrido[1,4]oxazin-6-yl)-5-fluoro-N2-[1-methyl-2-(4-morpholinomethyl)benzimidazol-5-yl]-2,4-pyrimidinediamine] |  | > 5.00 |  |  |
| COc1ccc(Nc2nc(Nc3ccc4[nH]c(CN5CCOCC5)nc4c3)ncc2F)cc1Cl [Compound 960, N4-(3-Chloro-4-methoxyphenyl)-5-fluoro-N2-[2-(4-morpholinomethyl)-1H-benzimidazol-5-yl]-2,4-pyrimidinediamine] |  | > 5.00 |  |  |
| CC1(C)Oc2ccc(Nc3nc(Nc4ccc5[nH]c(CN6CCOCC6)nc5c4)ncc3F)cc2NC1=O [Compound 961, N4-(2,2-Dimethyl-3-oxo-4H-benz[1,4]oxazin-6-yl)-5-fluoro-N2-[2-(4-morpholinomethyl)-1H-benzimidazol-5-yl]-2,4-pyrimidinediamine] | > 5.00 |  |  |  |
| CC1(C)Oc2ccc(Nc3nc(Nc4ccc5[nH]c(CN6CCOCC6)nc5c4)ncc3F)nc2NC1=O [Compound 962, N4-(2,2-Dimethyl-3-oxo-4H-5-pyrido[1,4]oxazin-6-yl)-5-fluoro-N2-[2-(4-morpholinomethyl)-1H-benzimidazol-5-yl]-2,4-pyrimidinediamine] | > 5.00 |  |  |  |
| Cc1nc2cc(Nc3ncc(F)c(Nc4ccc5c(c4)NC(=O)C(C)(C)O5)n3)ccc2n1CCCNS(C)(=O)=O [Compound 963] | > 5.00 |  |  |  |
| Cc1nc2cc(Nc3ncc(F)c(Nc4ccc5c(n4)NC(=O)C(C)(C)O5)n3)ccc2n1CCCNS(C)(=O)=O [Compound 964, N4-(2,2-Dimethyl-3-oxo-4H-5-pyrido[1,4]oxazin-6-yl)-5-fluoro-N2-[2-methyl-1-[3-(N-methylsulfonylamino)propyl]benzimidazol-5-yl]-2,4-pyrimidinediamine] |  | > 5.00 |  | pIC50 [4]: > 5.00 |
| Cn1c(CS(C)(=O)=O)nc2cc(Nc3ncc(F)c(Nc4ccc(Cl)c(Cl)c4)n3)ccc21 [Compound 965] |  |  | > 5.00 |  |
| COc1ccc(Nc2nc(Nc3ccc4c(c3)nc(CS(C)(=O)=O)n4C)ncc2F)cc1Cl [Compound 966] |  |  | > 5.00 |  |
| C[C@@H]1Oc2ccc(Nc3nc(Nc4ccc5c(c4)nc(CS(C)(=O)=O)n5C)ncc3F)cc2NC1=O [Compound 968] | > 5.00 |  | > 5.00 |  |
